Assays:
Assay type in all cases: cell-based
Details in all cases: topical 50 μl, 6 hours after treatment, related to G3PDH messenger
[1] = test system: cytokeratin 6B (K6B) gene; test: RT-qPCR gene expression in Episkin reconstructed epidermis: cytokeratin 6B
Experimental: (§1) The effects of the following four compositions were tested on the differentiation of Episkin® reconstructed epidermis. • A: formulation support (ethyl alcohol (3%) and water (97%)), • B: lysate (ethyl alcohol (3%), water (87%), lysate (10%)), • C: phytosphingosine salicylate (ethyl alcohol (3%), water (96.998%), phytosphingosine salicylate (0.002%)), and • D: combination in accordance with the invention=(0.002% phytosphingosine salicylate+10% lysate+ethyl alcohol (3%)+water (86.998%)).
(§2) J6 Episkin® reconstructed epidermis were placed in 12-well plates containing 2 ml of a maintenance medium and cultured at 37° C. and 5% CO2 for 24 hours. […]
(§3) These effects were characterized by analysing the expression of the cytokeratin 6B (K6B), cytokeratin 10 (K10) and involucrin (INV) genes using a real-time PCR method (quantitative PCR, qPCR) 6 hours after treatment.
(§4) The expression of the markers selected was evaluated by RT-qPCR on the messenger RNA extracted from the Episkin® reconstructed epidermis of each treatment (the duplicates were pooled before RNA extraction) 6, 24 and 48 hours after treatment. […]
(§5) The incorporation of fluorescence into the amplified DNA is measured continuously during the PCR cycles. This system makes it possible to obtain curves of the fluorescence measurement as a function of the PCR cycles and thus to evaluate a relative expression value for each marker. […]

[2] = test system: cytokeratin 10 (K10) gene; test: RT-qPCR gene expression in Episkin reconstructed epidermis: cytokeratin 10
Experimental: as §1, §2, §3, §4, §5

involucrin (INV) gene = test: RT-qPCR gene expression in Episkin reconstructed epidermis: involucrin
Experimental: as §1, §2, §3, §4, §5

**Q.** For “phytosphingosine salicylate [Composition C]”, which K6B expression [1] is on record?
**A.** 158 % of the untreated control

**Q.** What about the K10 expression [2] of the same substance?
**A.** 122 % of the untreated control

**Q.** What about the INV expression (involucrin (INV) gene) of the same substance?
**A.** 146 % of the untreated control
